# Source: patent publication US20240091359A1, “NOVEL ESR1 DERIVED PEPTIDES AND USES THEREOF FOR NEOANTIGEN THERAPY” (H. LEE MOFFITT CANCER CENTER AND RESEARCH INSTITUTE, INC., priority 2021, published 2024)
# System: CD4+ Th1 cells
# Experiment: ER peptide library screening: IFN-γ ELISA of supernatants from iDC-CD4+ Th1 co-culture after priming with peptide-pulsed DC1
# Type: cell-based, human
# Conditions: for native ER peptide screening result (immunogenic epitope / candidate sequence): cumulative responses from donors tested, native ER library of 117 peptides (FIG. 7); for donors with significant increase in IFN-γ production / immunogenicity (IFN-γ production): four healthy normal donor samples; for immunogenicity (IFN-γ production): mutated peptides and native ER peptides side by side (FIG. 9-13, 20); for increase in IFN-γ production: native ER individual peptide screening, second sample (FIG. 6C, 6D)
# Text: 176. We then take this peptide library and proceed with the screening process. Briefly, human autologous monocyte fractions from healthy donors and breast cancer patients are pulsed with class II peptides and are rapidly matured to a type-1 polarized dendritic cell (DC1) through the sequential addition of rhGM-CSF, rhIL-4, rhIFN-γ and LPS. Mature-peptide pulsed DC1's are then put in co-culture with autologous naïve T-cells, where these T-cells are presented with peptides via MHC-II molecules and are polarized to a type-1 effector CD4+ cell through DC1 secretion of IL-12. Additionally, IL-2 is added to the coculture to induce the rapid expansion of CD4+ Th1 cells, after 8-10 days of coculture, the now primed CD4+ Th1 cells are re-stimulated with immature dendritic cells presenting the matching class II peptide or an irrelevant class II negative control. Supernatants from the iDC-CD4+ Th1 co-culture are then screened through IFN-γ ELISA to measure Th1-response. An antigen specific response is considered to be significant as approximately a 2-fold increase in IFN-γ production (pg/mL) compared to the control. The final in vitro screening step is then to do a reverse sensitization. Where the primed CD4 T cells are re-stimulated with immature dendritic cells pulsed with the full tumor antigen in question, or the full protein. This step is important to determine if the identified immunogenic epitope can be recognized by T-cells primed to only a small amino acid sequence apart of the much larger protein.
# 178. The screening process (FIG. 3) of 10-5-1 is repeated on different samples as well to confirm commonalities in increased responses and reproducibility, ensuring that a response was not donor specific to keep track of common increased responses across donors and ultimately identify those reproducibly immunogenic peptides. The screening procedure follows the same experimental steps as mentioned before, and flows through a successive screening strategy, examining pools of 10 peptides, followed by pools of 5-peptides and eventually as individual peptides. This process allows for the rapid identification of the areas in the full protein sequence that may contain immunogenic peptides, rather than screening all peptides individually.
# 185. From the 11 noted point mutations, we cross matched their locations within the class II sequences of the ER peptide library. From this, each point mutation was represented in three peptide sequences due to the 10-amino acid overlap between adjacent sequences within the library. This overlap helps to account for binding affinity within the MHC II open binding groove (Table 3) 186. From the 11 mutations, a peptide library of 33 peptides (three sequences per mutation) was created (Table 3). As a comparison, we also screened the corresponding native or un-mutated ER sequences side-by-side to see if the mutation induced an increase in Th1 response compared to the native sequence.
sequence,measurement,setting,value
"AKAGLTLQQQHQRLA [P99, native ER library peptide]",native ER peptide screening result (immunogenic epitope / candidate sequence),,immunogenic
same,native ER peptide screening result (immunogenic epitope / candidate sequence),listed as 99,candidate sequences
"FLSSTLKSLEEKDHI [P93, native ER library peptide]",donors with significant increase in IFN-γ production,,two of four donors
"GFVDLTLHDQVHLLE [P74, native ER library peptide]",immunogenicity (IFN-γ production),,not immunogenic
"HMSNKGMEHLYSMKC [P104, native ER library peptide]",native ER peptide screening result (immunogenic epitope / candidate sequence),,immunogenic
same,native ER peptide screening result (immunogenic epitope / candidate sequence),listed as 104,candidate sequences
"IILLNSGVYTFLSST [P91, native ER library peptide]",donors with significant increase in IFN-γ production,,two of four donors
"KNVVPLYDLLLEMLD [P107, native ER library peptide]",immunogenicity (IFN-γ production),,not immunogenic
"LSHIRHMSNKGMEHL [P103, native ER library peptide]",native ER peptide screening result (immunogenic epitope / candidate sequence),,immunogenic
same,native ER peptide screening result (immunogenic epitope / candidate sequence),listed as 103,candidate sequences
same,increase in IFN-γ production,,almost identical response to 104
"LYDLLLEMLDAHRLH [P108, native ER library peptide]",immunogenicity (IFN-γ production),,not immunogenic
"QQVPYYLENEPSGYT [P26, native ER library peptide]",native ER peptide screening result (immunogenic epitope / candidate sequence),,immunogenic
same,native ER peptide screening result (immunogenic epitope / candidate sequence),listed as 26,candidate sequences
"TLHDQVHLLECAWLE [P75, native ER library peptide]",immunogenicity (IFN-γ production),,not immunogenic
"YLENEPSGYTVREAG [P27, native ER library peptide]",native ER peptide screening result (immunogenic epitope / candidate sequence),,immunogenic
same,native ER peptide screening result (immunogenic epitope / candidate sequence),listed as 27,candidate sequences
same,increase in IFN-γ production,,approximately 1.4 fold
"YSMKCKNVVPLYDLL [P106, native ER library peptide]",immunogenicity (IFN-γ production),,not immunogenic
